Here are results for 9 compounds from patent US5395836A, “8-tricycloalkyl xanthine derivatives” (Kyowa Hakko Kogyo Co., Ltd., priority 1993, dated 1995).

The term Ki denotes a measure of affinity in units of concentration, obtained from inhibition or displacement. Read a high Ki as lower affinity.

One test addresses T1, adenosine A1 receptor (Rattus norvegicus, UniProt P25099).
T1 construct: from tissue; host or cells: rat corpus striatum, washed membrane suspension
T1 sequence (P25099 1-326): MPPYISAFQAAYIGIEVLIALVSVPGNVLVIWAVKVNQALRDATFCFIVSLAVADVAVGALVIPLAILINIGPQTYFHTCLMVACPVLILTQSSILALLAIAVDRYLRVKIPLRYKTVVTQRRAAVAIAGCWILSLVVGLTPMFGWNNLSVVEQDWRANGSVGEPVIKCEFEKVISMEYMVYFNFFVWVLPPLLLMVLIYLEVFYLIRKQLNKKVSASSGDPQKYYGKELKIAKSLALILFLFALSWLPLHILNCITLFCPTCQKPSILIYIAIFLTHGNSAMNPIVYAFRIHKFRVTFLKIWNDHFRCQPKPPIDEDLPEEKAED
The test is described as follows: Adenosine Receptor Antagonizing Activity (Adenosine A1 Receptor Binding Test). The conditions noted are these: rat corpus striatum; 3H-CHA 1.1 nM; 25° C., 90 min; Cheng-Prusoff. The method, then:
The test was conducted according to the method of Bruns et al. [Proc. Natl. Acad. Sci. U.S.A., 77., 5547 (1980)] with slight modification.
Corpus striatum of a rat was suspended in ice-cooled 50 mM Tris hydroxymethyl aminomethane hydrochloride (Tris HCl) buffer (pH 7.7) by using Polytron homogenizer (manufactured by Kinematicas Co.). The suspension was centrifuged (50,000×g, 10 minutes), and the precipitate was suspended again in the same amount of 50 mM Tris HCl buffer. The suspension was centrifuged under the same conditions, and the final precipitate was suspended once again in 50 mM Tris HCl buffer to give a tissue concentration of 100 mg (wet weight)/ml. The tissue suspension was allowed to stand in the presence of 0.02 unit/mg tissue of adenosine deaminase (manufacture by Sigma Co.) at 37° C. for 30 minutes. The tissue suspension was centrifuged (50,000×g, 10 minutes) and to the obtained precipitates was added 50 mM Tris HCl buffer to give a tissue concentration of 10 mg (wet weight)/ml.
To 1 ml of the tissue suspension thus prepared, were added 50 μl of cyclohexyladenosine labeled with tritium (^3 H-CHA: 27 Ci/mmol, manufactured by New England Nuclear) (final concentration: 1.1 nM), and 50 μl of a test compound. The resulting mixture was allowed to stand at 25° C. for 90 minutes and then rapidly filtered by suction through a glass fiber filter (GF/C, manufactured by Whatman Co.). The filter was immediately washed three times with 5 ml each of ice-cooled 50 mM Tris HCl buffer, and transferred to a vial, and scintillator (EX-H by Wako Pure Chemical Industries, Ltd.) was added thereto. The radioactivity on the filter was determined with a liquid scintillation counter (manufactured by Packard Instrument Co.).
The inhibition rate (Ki value) of the test compound against the binding of A1 receptors (^3 H-CHA binding) was calculated by the equation of Cheng-Prusoff. [formula]

The nature of test [1]: Renal-protecting Effect (Glycerol-Induced Renal Failure Model). The test is classed as in vivo, rat (Wistar). The note with it: for Amount of creatinine in blood serum / Amount of uria nitrogen in blood serum: ip, 24 h after glycerol. As for the experimental part:
A renal failure is a state where the renal function is lowered and the homeostasis of a body fluid can be no longer maintained. It is known that an acute renal failure characteristic of uriniferous tubule disorder is caused by subcutaneous or intramuscular injection of glycerol to rats [Can. J. Physiol.
Male Wistar rats were kept deprived of water for 18 hours, and served for the test. A test compound was intraperitoneally administered to the rats (dosage: 0.1 ml/100 g). After 30 minutes, the rats were anesthetized with ether and 50% glycerol was subcutaneously administered (dosage: 0.8 ml/100 g) to the rats, pinching the dorsal skin. Twenty four hours after the administration of glycerol, the rats were anesthetized with ether and 5 ml of blood was collected from the abdominal aorta. The collected blood was allowed to stand for 30 minutes or longer and then centrifuged at 3,000 rpm for 10 minutes, and the amounts of the serum creatinine and the serum urine-nitrogen (UN) were determined by auto analyzer (Olympus AU510) [creatinine test (Jaffe method), UN test (enzyme method); both tests were used in Olympus AU500/550 exclusive reagent […].

Another test in a line: Diuretic Effect. In kind it is in vivo, rat (Wistar). The conditions noted are these: po, 4 hours; for Increase in amount of K+ excreted Δ(%) / Increase in amount of Na+ excreted Δ(%) / Increase in amount of urine Δ(%): control 0; for Na+/K+: control 1.00. The method, then:
The experiment was performed by using Wistar rats (male; 150 to 300 g). The rats were starved for 18 hours prior to the administration of a test compound (n=4 to 5). After test compounds were dissolved in 0.4% methanol, 1% dimethylsulfoxide and 0.01N sodium hydroxide/physiological saline, and administered intravenously, the physiological saline (25 ml/kg) was orally administered. Alternatively, test compounds dissolved in the physiological saline (25 ml/kg) was orally administered to the rats. Urine was collected from the rats during 4 hours after the oral administration, and urine volume was measured by a graduated measuring cylinder, and the electrolytes in the urine (Na^+ and K^+) were determined by flame photometer (775 A manufactured by Hitachi, Ltd.).

The mark [2] stands for this setting: 0.03 mg/kg, control 4.55 ± 0.24.
The mark [3] stands for this setting: 0.03 mg/kg, control 137.2 ± 5.0.
The mark [4] stands for this setting: 0.01 mg/kg, control 3.90 ± 0.24 (compounds 6, 7), 4.35 ± 0.23 (compound 3).
Where [5] appears, read: 0.01 mg/kg, control 124.9 ± 7.5 (compounds 6, 7), 139.7 ± 10.2 (compound 3).

In turn, `CCCn1c(=O)c2[nH]c(C34CC5CC(C3)C(O)C4C5)nc2n(CCC)c1=O` (stereo not drawn) [Compound 5, 8-(Trans-6-hydroxy-3-tricyclo[3.3.1.0^3,7]nonyl)-1,3-dipropylxanthine] had an inhibitory constant (Ki) at adenosine A1 receptor of 0.24 nM. In test [1] (0.1 mg/kg, control 4.55 ± 0.24 (compound 5), 4.35 ± 0.23 (compound 3)), the “Amount of creatinine in blood serum” value was 2.34 ± 0.24 mg/dL. In addition, in test [1] (0.1 mg/kg, control 137.2 ± 5.0 (compound 5), 139.7 ± 10.2 (compound 3)), the “Amount of uria nitrogen in blood serum” value came to 74.4 ± 7.7 mg/dL.
`CCCn1c(=O)c2[nH]c(C34CC5CC(C3)C(=O)C4C5)nc2n(CCC)c1=O` (stereo not shown) [Compound 2, 8-(6-Oxo-3-tricyclo[3.3.1.0^3,7]nonyl)-1,3-dipropylxanthine] showed a Ki on adenosine A1 receptor of 0.59 nM. Also, in the test “Diuretic Effect” (0.1 mg/kg), the “Increase in amount of K+ excreted Δ(%)” value is on record as 32%, the “Increase in amount of Na+ excreted Δ(%)” value came out at 177%, the “Increase in amount of urine Δ(%)” value is on record as 211% and the “Na+/K+” value was determined as 2.10. Moreover, in “Diuretic Effect” (1.6 mg/kg), the “Increase in amount of K+ excreted Δ(%)” value is given as 8%, the “Increase in amount of Na+ excreted Δ(%)” value worked out at 188%, the “Increase in amount of urine Δ(%)” value is on record as 241% and the “Na+/K+” value turned out to be 2.67. Besides, in test [1] (setting [2]), the “Amount of creatinine in blood serum” value amounted to 2.51 ± 0.24 mg/dL. In addition, the “Amount of uria nitrogen in blood serum” value in test [1] (setting [3]) was 85.0 ± 8.7 mg/dL.
As for `CCCn1c(=O)c2[nH]c(C34CC5CC3CC(C4)C5=O)nc2n(CCC)c1=O` [Compound 1, 8-(9-Oxo-3-tricyclo[3.3.1.0^3,7]nonyl)-1,3-dipropylxanthine], the affinity at adenosine A1 receptor corresponds to a Ki of 0.37 nM. Further, in “Diuretic Effect” (0.01 mg/kg), the “Increase in amount of K+ excreted Δ(%)” value came out at 37%, the “Increase in amount of Na+ excreted Δ(%)” value was determined as 144%, the “Increase in amount of urine Δ(%)” value came to 149% and the “Na+/K+” value turned out to be 1.78. In the test “Diuretic Effect” (1.6 mg/kg), the “Increase in amount of K+ excreted Δ(%)” value is 36%, the “Increase in amount of Na+ excreted Δ(%)” value amounted to 193%, the “Increase in amount of urine Δ(%)” value is 258% and the “Na+/K+” value is on record as 2.15. In addition, in test [1] (setting [2]), the “Amount of creatinine in blood serum” value turned out to be 2.51 ± 0.41 mg/dL. For the same compound, the “Amount of uria nitrogen in blood serum” value in test [1] (setting [3]) was 81.4 ± 15.9 mg/dL.
As to `Cn1c(=O)c2[nH]cnc2n(C)c1=O` [aminophylline, reference compound], the “effect of suppressing the increase” value in test [1] (i.p., 10 mg/kg) is “weak effect of suppressing the increase”.
Consider `CCCn1c(=O)c2[nH]c(C34CC5CC(CC(O)(C5)C3)C4)nc2n(CCC)c1=O` [Compound 8, 8-(3-Hydroxy-1-tricyclo[3.3.1.1^3,7]decyl)-1,3-dipropylxanthine], for which the Ki at adenosine A1 receptor was determined as 5.1 nM.
The compound `CCCn1c(=O)c2[nH]c(C34CC5CC(CC3C5)C4)nc2n(CC(C)O)c1=O` (stereo not shown) [Compound 7, 3-(2-hydroxypropyl) -8-(3tricyclo[3.3.1.0^3,7]nonyl)-1-propylxanthine] came in with a Ki on adenosine A1 receptor of 6.1 nM. Besides, in “Diuretic Effect” (0.01 mg/kg), the “Increase in amount of K+ excreted Δ(%)” value was found to be 33%, the “Increase in amount of Na+ excreted Δ(%)” value is 97%, the “Increase in amount of urine Δ(%)” value was determined as 140% and the “Na+/K+” value is given as 1.48. Further, in “Diuretic Effect” (0.1 mg/kg), the “Increase in amount of K+ excreted Δ(%)” value turned out to be 23%, the “Increase in amount of Na+ excreted Δ(%)” value is listed as 138%, the “Increase in amount of urine Δ(%)” value was 200% and the “Na+/K+” value is recorded as 1.93. Moreover, the “Amount of creatinine in blood serum” value in test [1] (setting [4]) was found to be 2.28 ± 0.22 mg/dL. Further, the “Amount of uria nitrogen in blood serum” value in test [1] (setting [5]) is 70.0 ± 9.8 mg/dL.
For the compound `CCCn1c(=O)c2[nH]c(C34CC5CC(CC3C5)C4)nc2n(CCCO)c1=O` [Compound 6, 3-(3-Hydroxypropyl)-8-(3-tricyclo[3.3.1.0^3,7]nonyl)-1-propylxanthine], the Ki at adenosine A1 receptor worked out at 0.96 nM. In the test “Diuretic Effect” (0.025 mg/kg), the “Increase in amount of K+ excreted Δ(%)” value was 5.1%, the “Increase in amount of Na+ excreted Δ(%)” value is reported as 111%, the “Increase in amount of urine Δ(%)” value was found to be 134% and the “Na+/K+” value was 2.00. Besides, in the test “Diuretic Effect” (0.1 mg/kg), the “Increase in amount of K+ excreted Δ(%)” value is 24%, the “Increase in amount of Na+ excreted Δ(%)” value turned out to be 276%, the “Increase in amount of urine Δ(%)” value was 396% and the “Na+/K+” value turned out to be 3.03. Further, the “Amount of creatinine in blood serum” value in test [1] (setting [4]) was 2.23 ± 0.15 mg/dL. For the same compound, the “Amount of uria nitrogen in blood serum” value in test [1] (setting [5]) was 65.4 ± 5.6 mg/dL.
As for `CCCn1c(=O)c2[nH]c(C34C[C@H]5CC3C[C@@H](C4)[C@H]5O)nc2n(CCC)c1=O` (relative stereo) [Compound 4, 8-(cis-9-hydroxy-3tricyclo[3.3.1.0^3,7]nonyl)-1,3-dipropylxanthine], on adenosine A1 receptor, the affinity, expressed as Ki, was 0.31 nM. Moreover, in the test “Diuretic Effect” (0.01 mg/kg), the “Increase in amount of K+ excreted Δ(%)” value was 43%, the “Increase in amount of Na+ excreted Δ(%)” value worked out at 167%, the “Increase in amount of urine Δ(%)” value amounted to 200% and the “Na+/K+” value came out at 1.86. In “Diuretic Effect” (1.6 mg/kg), the “Increase in amount of K+ excreted Δ(%)” value is recorded as 35%, the “Increase in amount of Na+ excreted Δ(%)” value is listed as 180%, the “Increase in amount of urine Δ(%)” value came to 232% and the “Na+/K+” value was found to be 2.07. The “Amount of creatinine in blood serum” value in test [1] (setting [2]) stood at 2.32 ± 0.48 mg/dL. For the same compound, the “Amount of uria nitrogen in blood serum” value in test [1] (setting [3]) came out at 75.6 ± 13.9 mg/dL.
On to `NS(=O)(=O)c1cc(C(=O)O)c(NCc2ccco2)cc1Cl` [furosemide, reference compound], for which the “effect on serum creatinine” value in test [1] (i.p., 10 mg/kg) is on record as “tendency to increase the serum creatinine”.
